Each block holds one molecule with its values, some of them ahead of it.
Columns and labels:
Experiment in all cases: Synergistic antimicrobial activity as MIC, 96-well microplate, optical density at 620 nm
Type in all cases: cell-based
Conditions in all cases: for microbial growth percentage: 0 A
[1] = tested on: Aspergillus niger ATCC 6275
Description: (§1) FIC Index=(MIC of A with B/MIC of A)+(MIC of B with A/MIC of B [Math. 1]
(§2) with: • MIC of A with B: minimum concentration of product A in the combination A+B which makes it possible to obtain an inhibitory effect; • MIC of B with A: minimum concentration of product B in the combination A+B which makes it possible to obtain an inhibitory effect; • MIC of A: minimum inhibitory concentration of product A alone; • MIC of B: minimum inhibitory concentration of product B alone. This formula was described for the first time in the article by F. C. Kull, P. C. Eisman, H. D. Sylwestrowka, and R. L. Mayer, Applied Microbiology 9:538-541, 1961.
The microbial strain Aspergillus niger ATCC 6275, and a double-concentration Sabouraud broth liquid culture medium supplemented with polyoxyethylenated (20 OE) sorbitan monopalmitate (Tween 40 from Croda) and Phytagel© BioReagent were used (i.e. a mixture of 5 g of Phytagel+0.6 g of Tween 40+60 g of Sabouraud broth).
(§3) A 96-well microplate at an incubation temperature of 32.5° C. is used.
(§4) The incubation time of the microplate is: • from 24 to 30 h under aerobic conditions for microbial Aspergillus niger ATCC 6275; • from 18 to 24 h under aerobic conditions for Candida albicans ATCC 10231, Pseudomonas aeruginosa ATCC 9027 and Staphylococcus aureus ATCC 6538; • from 24 to 48 h under aerobic conditions for Enterococcus faecalis ATCC 33186.
(§5) For each compound: A=4-(3-ethoxy-4-hydroxyphenyl) butan-2-one compound B=alcohol compound A 10% (weight/volume) stock solution was prepared by mixing 1 g of compound in 9 ml of aqueous 1% agar solution. Successive dilutions were made with the 1% agar solution.
(§6) 50 μl of each of the daughter solutions obtained containing compound A or B are added to the microplate wells. 100 μl of Sabouraud liquid nutrient broth inoculated at double concentration with the Aspergillus niger strain and 50 μl of aqueous 1% agar solution are also added thereto.
(§7) 50 μl of each of the daughter solutions obtained containing compound A and 50 μl of each of the daughter solutions obtained containing compound B are added to the microplate wells. 100 μl of Sabouraud liquid nutrient broth inoculated at double concentration with the strain Aspergillus niger are also added thereto.
(§8) A positive microbial growth control was also prepared. The positive microbial growth control corresponds to a mixture of 100 μl of aqueous 1% agar solution with 100 μl of Sabouraud liquid nutrient broth inoculated at double concentration with the strain Aspergillus niger in the absence of compounds A and B.
(§9) An absorbance control was performed in parallel on compounds A and B alone. This control corresponds to 100 μl of double concentration sterile Sabouraud liquid nutrient broth+100 μl of double concentration compound A or B.
(§10) In the three cases (absorbance control, growth control and test), the final volume present in each of the microplate wells is 200 μl.
In the two cases (test and control), the inoculum represents the concentration of the Aspergillus niger strain present in the final volume of the wells (200 μl) and is between 2 and 6×10^5 cfu/ml of Aspergillus niger.

[2] = tested on: Enterococcus faecalis ATCC 33186
Description: as §1, §2
The microbial strain Enterococcus faecalis ATCC 33186 and a double-concentration BHI (Brain Heart Infusion) broth liquid culture medium were used.
as §3, §4, §5, §6, §7, §8, §9, §10
(§11) The test as described above (tests, absorbance control and growth control) was performed again to test the combination A+B on the following strains Enterococcus faecalis, Staphylococcus aureus, Pseudomonas aeruginosa, Candida albicans, where appropriate.

[3] = tested on: Candida albicans ATCC 10231
Description: with: • MIC of A with B: minimum concentration of product A in the combination A+B which makes it possible to obtain an inhibitory effect; • MIC of B with A: minimum concentration of product B in the combination A+B which makes it possible to obtain an inhibitory effect; • MIC of A: minimum inhibitory concentration of product A alone; • MIC of B: minimum inhibitory concentration of product B alone. This formula was described for the first time in the article by F. C. Kull, […], and R. L. Mayer, Applied Microbiology 9:538-541, 1961. […] When the FIC index value is less than or equal to 1, it is considered that the combination of test compounds has a synergistic effect. […] A 96-well microplate at an incubation temperature of 32.5° C. is used. […] For each compound: […] 50 μl of each of the daughter solutions obtained containing compound A and 50 μl of each of the daughter solutions obtained containing compound B are added to the microplate wells. 100 μl of Sabouraud liquid nutrient broth inoculated at double concentration with the strain Aspergillus niger are also added thereto. A positive microbial growth control was also prepared. […] An absorbance control was performed in parallel on compounds A and B alone. This control corresponds to 100 μl of double concentration sterile Sabouraud liquid nutrient broth+100 μl of double concentration compound A or B. […] The test as described above (tests, absorbance control and growth control) was performed again to test the combination A+B on the following strains Enterococcus faecalis, Staphylococcus aureus, Pseudomonas aeruginosa, Candida albicans, where appropriate.

[4] = tested on: Staphylococcus aureus ATCC 6538
Description: as §1, §2
The microbial strain Staphylococcus aureus ATCC 6538 and a double-concentration nutrient broth liquid culture medium were used.
as §3, §4, §5, §6, §7, §8, §9, §10, §11

[5] = tested on: Pseudomonas aeruginosa ATCC 9027
Description: with: • MIC of A with B: minimum concentration of product A in the combination A+B which makes it possible to obtain an inhibitory effect; • MIC of B with A: minimum concentration of product B in the combination A+B which makes it possible to obtain an inhibitory effect; • MIC of A: minimum inhibitory concentration of product A alone; • MIC of B: minimum inhibitory concentration of product B alone. This formula was described for the first time in the article by F. C. Kull, […], and R. L. Mayer, Applied Microbiology 9:538-541, 1961. […] When the FIC index value is less than or equal to 1, it is considered that the combination of test compounds has a synergistic effect. The microbial strain Pseudomonas aeruginosa ATCC 9027 and a double-concentration nutrient broth liquid culture medium were used. A 96-well microplate at an incubation temperature of 32.5° C. is used. […] For each compound: […] 50 μl of each of the daughter solutions obtained containing compound A and 50 μl of each of the daughter solutions obtained containing compound B are added to the microplate wells. 100 μl of Sabouraud liquid nutrient broth inoculated at double concentration with the strain Aspergillus niger are also added thereto. A positive microbial growth control was also prepared. […] An absorbance control was performed in parallel on compounds A and B alone. This control corresponds to 100 μl of double concentration sterile Sabouraud liquid nutrient broth+100 μl of double concentration compound A or B. […] The test as described above (tests, absorbance control and growth control) was performed again to test the combination A+B on the following strains Enterococcus faecalis, Staphylococcus aureus, Pseudomonas aeruginosa, Candida albicans, where appropriate.

[6] = Aspergillus niger, growth <= 25%
[7] = Enterococcus faecalis, growth <= 25%
[8] = Staphylococcus aureus, growth <= 25%

% MIC of B3 alone [1, 6]: 0.1% | % MIC of B3 alone [2, 7]: 1%
Molecule: sorbitan caprylate [B3]
microbial growth percentage ([1]; 0.025 B3 weight %): 50% | microbial growth percentage ([1]; 0.05 B3 weight %): 30% | microbial growth percentage ([1]; 0.1 B3 weight %): −2% | microbial growth percentage ([2]; 0.125 B3 weight %): 134% | microbial growth percentage ([2]; 0.25 B3 weight %): 61% | microbial growth percentage ([2]; 0.5 B3 weight %): 62% | microbial growth percentage ([2]; 1 B3 weight %): 2%

% MIC of B5 alone [1, 6]: 0.5% | % MIC of B5 alone ([3]; Candida albicans, growth <= 25%): 0.25%
Molecule: Cc1cc(O)cc(C)c1Cl [B5, 4-chloro-3,5-dimethylphenol]
microbial growth percentage ([1]; 0.0625 B5 weight %): 99% | microbial growth percentage ([1]; 0.125 B5 weight %): 103% | microbial growth percentage ([1]; 0.25 B5 weight %): 31% | microbial growth percentage ([1]; 0.5 B5 weight %): −6% | microbial growth percentage ([3]; 0.0625 B5 weight %): 73% | microbial growth percentage ([3]; 0.125 B5 weight %): 28% | microbial growth percentage ([3]; 0.25 B5 weight %): 1%

% MIC of B1 alone [1, 6]: 0.5%
Molecule: CC(=O)c1ccc(O)cc1 [B1, 4-hydroxyacetophenone]
microbial growth percentage ([1]; 0.0625 B1 weight %): 86% | microbial growth percentage ([1]; 0.125 B1 weight %): 72% | microbial growth percentage ([1]; 0.25 B1 weight %): 79% | microbial growth percentage ([1]; 0.5 B1 weight %): 6%

% MIC of B6 alone [4, 8]: 1% | % MIC of B6 alone ([5]; Pseudomonas aeruginosa, growth <= 25%): 0.4% | % MIC of B6 alone [2, 7]: 0.5%
Molecule: CCCCCCCC(=O)OCC(O)CO (centres unmarked) [B6, glyceryl caprylate]
microbial growth percentage ([4]; 0.0625 B6 weight %): 83% | microbial growth percentage ([4]; 0.125 B6 weight %): 87% | microbial growth percentage ([4]; 0.25 B6 weight %): 53% | microbial growth percentage ([4]; 0.5 B6 weight %): 48% | microbial growth percentage ([4]; 1 B6 weight %): 9% | microbial growth percentage ([5]; 0.1 B6 weight %): 123% | microbial growth percentage ([5]; 0.2 B6 weight %): 109% | microbial growth percentage ([5]; 0.4 B6 weight %): −40% | microbial growth percentage ([2]; 0.125 B6 weight %): 57% | microbial growth percentage ([2]; 0.25 B6 weight %): 22% | microbial growth percentage ([2]; 0.5 B6 weight %): 8% | microbial growth percentage ([2]; 0.625 B6 weight %): 38%

Molecule: Oc1cc(Cl)ccc1Oc1ccc(Cl)cc1Cl [B2, 5-chloro-2-(2,4-dichlorophenoxy)phenol]
microbial growth percentage ([4]; 0.125 B2 weight %): 46% | microbial growth percentage ([4]; 0.25 B2 weight %): 14% | % MIC of B2 alone [4, 8]: 0.25%
